The test system of this assay is HMG-CoA reductase. Put plainly: HMG-CoA Reductase Inhibition Assay (in vitro). The assay is classed as biochemical, rat. As to conditions: relative to compactin, arbitrarily assigned a value of 100; IC50 compared with that of compactin determined simultaneously; tested as sodium salt of dihydroxy acid form. The procedure:
The intrinsic HMG-CoA reductase inhibition activity of the claimed compounds is measured in the in vitro protocol published in J. Med. Chem., 28, P. 347-358 (1985) and described below:
Isolation of HMG-CoA Reductase. Male Holtzman Sprague-Dawley rate (225-250 g) were kept on reversed lighting and fed Purina rat chow containing 3% cholestyramine for 7 days preceding their sacrifice by CO2 asphyxiation. Livers were removed 6 hours into the dark cycle and used immediately to prepare microsomes. […]
Test compounds or compactin (after first being converted to the sodium salt of their dihydroxy acid form in situ by addition of 1 N NaOH (1 equiv)) were added to the assay system in 10-μL volumes at multiconcentration levels. […] Five milliliters of Aquasol-2 (New England Nuclear) was added to each vial, and radioactivity was measured in a Packard Tri Carb Prias scintillation counter. IC50 values were determined by plotting percentage inhibition against test compounds concentration and fitting a straight line to the resulting data by using the least-squares method. For estimation of relative inhibitory potencies, compactin was assigned a value of 100 and the IC50 value of the test compound was compared with that of compactin determined simultaneously.

Consider “6(R)-[2-[8(S)-(1-Ethoxycarbonylcyclopropanecarbonyloxy)-2(S),6(R)-dimethyl-1,2,6,7,8,8a (R)-hexahydronaphthyl-1(S)]ethyl]-4(R)-hydroxy-3,4,5,6-tetrahydro-2H-pyran-2-one”, for which the “Relative Potency” value came to 11.

Regarding “6(R)-[2-8(S)-(1-Ethoxycarbonylcyclobutanecarbonyloxy)-2(S),6(R)-dimethyl-1,2,6,7,8,8a-(R)-hexahydronaphthyl-1(S)]ethyl]-4(R)-hydroxy-3,4,5,6-tetrahydro-2H-pyrane-2-one”, the “Relative Potency” value came to 65.

Values taken from patent US4876279A, “Antihypercholesterolemic compounds” (Merck & Co., Inc., priority 1988, dated 1989).
